Where two headings read alike, the source gives them in different places.
What was measured:
EGFR L858R/T790M/C797S = EGFR L858R/T790M/C797S (Homo sapiens, UniProt P00533, C797S/L858R/T790M); experiment: Biochemical EGFR kinase inhibition assay (Lance Ultra TR-FRET), triple mutant L858R/T790M/C797S
Method in brief: (§1)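 In this biochemical assay, phosphorylation after a one-hour room-temperature reaction was detected with europium-labelled anti-phosphopeptide antibody at 2 nM final concentration.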

EGFR wildtype (WT) = EGFR wildtype (WT) (Homo sapiens, UniProt P00533); experiment: Biochemical EGFR kinase inhibition assay (Lance Ultra TR-FRET), wildtype
Sequence of EGFR wildtype (WT) (P00533 25-1210): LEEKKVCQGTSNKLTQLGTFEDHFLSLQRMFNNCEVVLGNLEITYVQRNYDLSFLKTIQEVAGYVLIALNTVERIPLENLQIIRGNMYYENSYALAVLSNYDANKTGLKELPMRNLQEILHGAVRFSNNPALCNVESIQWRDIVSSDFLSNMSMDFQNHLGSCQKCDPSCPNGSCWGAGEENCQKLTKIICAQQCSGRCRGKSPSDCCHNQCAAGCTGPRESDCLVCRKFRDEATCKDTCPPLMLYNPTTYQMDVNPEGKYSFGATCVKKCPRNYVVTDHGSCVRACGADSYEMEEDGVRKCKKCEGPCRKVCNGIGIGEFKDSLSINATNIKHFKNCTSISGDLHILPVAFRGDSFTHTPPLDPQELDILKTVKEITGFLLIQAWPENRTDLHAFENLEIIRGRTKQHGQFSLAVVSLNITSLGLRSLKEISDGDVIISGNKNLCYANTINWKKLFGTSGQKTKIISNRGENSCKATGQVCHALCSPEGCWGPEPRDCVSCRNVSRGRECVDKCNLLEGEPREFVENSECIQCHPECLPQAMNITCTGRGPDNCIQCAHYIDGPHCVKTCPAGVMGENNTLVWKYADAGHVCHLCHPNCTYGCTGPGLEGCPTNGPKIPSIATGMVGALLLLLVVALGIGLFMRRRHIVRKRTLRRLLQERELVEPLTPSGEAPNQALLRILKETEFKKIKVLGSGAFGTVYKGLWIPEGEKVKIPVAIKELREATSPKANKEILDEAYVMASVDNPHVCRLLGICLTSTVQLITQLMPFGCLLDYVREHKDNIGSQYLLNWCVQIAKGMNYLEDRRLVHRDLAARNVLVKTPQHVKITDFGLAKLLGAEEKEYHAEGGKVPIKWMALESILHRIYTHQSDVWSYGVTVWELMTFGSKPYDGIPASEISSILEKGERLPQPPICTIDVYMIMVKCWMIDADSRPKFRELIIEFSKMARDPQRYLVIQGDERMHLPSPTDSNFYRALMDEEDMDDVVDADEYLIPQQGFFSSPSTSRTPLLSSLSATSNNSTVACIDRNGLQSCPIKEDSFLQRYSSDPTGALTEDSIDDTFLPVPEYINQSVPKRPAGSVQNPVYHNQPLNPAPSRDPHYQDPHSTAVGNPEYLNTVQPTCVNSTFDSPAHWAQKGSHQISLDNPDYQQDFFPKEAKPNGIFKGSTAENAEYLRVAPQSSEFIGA
Method in brief: as §1

EGFR Del19/T790M/C797S = EGFR Del19/T790M/C797S (Homo sapiens, UniProt P00533, C797S/DEL746-750/T790M); experiment: Biochemical EGFR kinase inhibition assay (Lance Ultra TR-FRET), triple mutant del19/T790M/C797S
Sequence of EGFR Del19/T790M/C797S (P00533 with tags, fused parts or gaps DEL746-750/T790M/C797S): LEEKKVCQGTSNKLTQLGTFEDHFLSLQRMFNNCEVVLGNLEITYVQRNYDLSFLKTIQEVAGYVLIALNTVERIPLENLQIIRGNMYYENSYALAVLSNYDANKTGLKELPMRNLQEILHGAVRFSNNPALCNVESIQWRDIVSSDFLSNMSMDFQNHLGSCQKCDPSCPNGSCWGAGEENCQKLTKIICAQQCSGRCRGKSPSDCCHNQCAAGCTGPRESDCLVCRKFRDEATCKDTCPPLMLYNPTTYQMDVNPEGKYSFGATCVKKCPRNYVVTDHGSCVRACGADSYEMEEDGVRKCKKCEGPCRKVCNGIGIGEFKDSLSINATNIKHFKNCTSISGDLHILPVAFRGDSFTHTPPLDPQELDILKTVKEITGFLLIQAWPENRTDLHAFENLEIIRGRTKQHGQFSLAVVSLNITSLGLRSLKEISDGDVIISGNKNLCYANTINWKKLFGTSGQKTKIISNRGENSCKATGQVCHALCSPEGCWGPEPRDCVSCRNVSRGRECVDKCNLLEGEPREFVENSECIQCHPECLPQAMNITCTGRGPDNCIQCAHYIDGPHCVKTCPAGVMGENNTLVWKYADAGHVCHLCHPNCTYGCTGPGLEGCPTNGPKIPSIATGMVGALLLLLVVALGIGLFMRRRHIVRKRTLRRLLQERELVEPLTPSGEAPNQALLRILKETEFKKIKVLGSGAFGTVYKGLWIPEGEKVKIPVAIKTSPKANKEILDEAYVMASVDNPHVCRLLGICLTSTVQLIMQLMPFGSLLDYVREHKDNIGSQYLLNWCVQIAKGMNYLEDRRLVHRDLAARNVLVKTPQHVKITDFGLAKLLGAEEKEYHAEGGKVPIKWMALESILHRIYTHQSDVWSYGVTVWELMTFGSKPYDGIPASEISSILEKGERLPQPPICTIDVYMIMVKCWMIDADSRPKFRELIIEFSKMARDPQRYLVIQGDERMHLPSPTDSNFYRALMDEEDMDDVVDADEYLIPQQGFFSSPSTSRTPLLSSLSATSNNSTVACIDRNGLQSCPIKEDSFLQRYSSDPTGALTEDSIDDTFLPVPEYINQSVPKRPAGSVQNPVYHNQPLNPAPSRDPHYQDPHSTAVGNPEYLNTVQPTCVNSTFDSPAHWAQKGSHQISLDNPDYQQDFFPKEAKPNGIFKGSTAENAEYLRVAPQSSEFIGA
Method in brief: as §1

EGFR Del19/C797S = EGFR Del19/C797S (Homo sapiens, UniProt P00533, C797S/DEL746-750); experiment: Biochemical EGFR kinase inhibition assay (Lance Ultra TR-FRET), double mutant del19/C797S
Method in brief: as §1

EGFR L858R/C797S = EGFR L858R/C797S (Homo sapiens, UniProt P00533, C797S/L858R); experiment: Biochemical EGFR kinase inhibition assay (Lance Ultra TR-FRET), double mutant L858R/C797S
Sequence of EGFR L858R/C797S (P00533 25-1210 C797S/L858R): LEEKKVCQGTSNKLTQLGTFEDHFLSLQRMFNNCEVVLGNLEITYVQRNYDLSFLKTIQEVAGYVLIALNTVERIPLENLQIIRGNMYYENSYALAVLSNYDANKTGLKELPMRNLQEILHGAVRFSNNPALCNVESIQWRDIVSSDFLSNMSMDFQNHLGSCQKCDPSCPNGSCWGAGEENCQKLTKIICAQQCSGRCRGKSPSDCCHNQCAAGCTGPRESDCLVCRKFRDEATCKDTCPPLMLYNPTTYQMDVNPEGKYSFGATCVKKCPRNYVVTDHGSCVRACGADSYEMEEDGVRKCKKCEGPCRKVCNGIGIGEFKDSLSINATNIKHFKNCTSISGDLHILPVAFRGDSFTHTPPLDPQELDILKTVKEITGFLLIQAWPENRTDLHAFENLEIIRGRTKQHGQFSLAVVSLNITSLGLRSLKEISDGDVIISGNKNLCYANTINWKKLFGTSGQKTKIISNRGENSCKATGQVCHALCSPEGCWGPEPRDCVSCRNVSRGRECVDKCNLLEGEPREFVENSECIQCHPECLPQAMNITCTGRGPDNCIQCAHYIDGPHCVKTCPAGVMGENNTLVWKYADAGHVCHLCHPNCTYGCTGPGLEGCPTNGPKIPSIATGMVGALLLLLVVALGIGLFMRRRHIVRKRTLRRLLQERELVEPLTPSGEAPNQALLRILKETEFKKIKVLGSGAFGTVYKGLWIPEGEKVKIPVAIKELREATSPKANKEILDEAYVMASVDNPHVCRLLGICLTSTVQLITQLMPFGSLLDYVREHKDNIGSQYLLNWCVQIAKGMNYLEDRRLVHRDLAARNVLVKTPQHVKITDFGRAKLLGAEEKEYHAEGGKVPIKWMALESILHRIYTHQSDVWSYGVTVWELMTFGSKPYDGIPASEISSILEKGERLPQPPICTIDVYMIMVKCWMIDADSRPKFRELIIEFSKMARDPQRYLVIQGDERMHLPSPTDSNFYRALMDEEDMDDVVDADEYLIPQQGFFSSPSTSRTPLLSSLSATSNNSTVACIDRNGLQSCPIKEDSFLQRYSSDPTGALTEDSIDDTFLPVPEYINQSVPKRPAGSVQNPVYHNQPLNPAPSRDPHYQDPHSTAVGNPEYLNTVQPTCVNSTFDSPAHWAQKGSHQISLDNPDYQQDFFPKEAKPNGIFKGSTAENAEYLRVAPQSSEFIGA
Method in brief: as §1

[1] = IC50 L858R/T790M/C797S (nM), 100 μM ATP
[2] = Km ATP, read-out: IC50 L858R/T790M/C797S (nM), Km ATP
[3] = IC50 Del19/T790M/C797S (nM), 100 μM ATP
[4] = Km ATP, read-out: IC50 Del19/T790M/C797S (nM), Km ATP
[5] = IC50 Del19/C797S (nM), 100 μM ATP
[6] = IC50 L858R/C797S (nM), 100 μM ATP
[7] = Km ATP, read-out: IC50 WT (nM), Km ATP
[8] = Km ATP, read-out: IC50 Del19/C797S (nM), Km ATP
[9] = Km ATP, read-out: IC50 L858R/C797S (nM), Km ATP

Sequence of EGFR L858R/T790M/C797S (P00533 25-1210 T790M/C797S/L858R): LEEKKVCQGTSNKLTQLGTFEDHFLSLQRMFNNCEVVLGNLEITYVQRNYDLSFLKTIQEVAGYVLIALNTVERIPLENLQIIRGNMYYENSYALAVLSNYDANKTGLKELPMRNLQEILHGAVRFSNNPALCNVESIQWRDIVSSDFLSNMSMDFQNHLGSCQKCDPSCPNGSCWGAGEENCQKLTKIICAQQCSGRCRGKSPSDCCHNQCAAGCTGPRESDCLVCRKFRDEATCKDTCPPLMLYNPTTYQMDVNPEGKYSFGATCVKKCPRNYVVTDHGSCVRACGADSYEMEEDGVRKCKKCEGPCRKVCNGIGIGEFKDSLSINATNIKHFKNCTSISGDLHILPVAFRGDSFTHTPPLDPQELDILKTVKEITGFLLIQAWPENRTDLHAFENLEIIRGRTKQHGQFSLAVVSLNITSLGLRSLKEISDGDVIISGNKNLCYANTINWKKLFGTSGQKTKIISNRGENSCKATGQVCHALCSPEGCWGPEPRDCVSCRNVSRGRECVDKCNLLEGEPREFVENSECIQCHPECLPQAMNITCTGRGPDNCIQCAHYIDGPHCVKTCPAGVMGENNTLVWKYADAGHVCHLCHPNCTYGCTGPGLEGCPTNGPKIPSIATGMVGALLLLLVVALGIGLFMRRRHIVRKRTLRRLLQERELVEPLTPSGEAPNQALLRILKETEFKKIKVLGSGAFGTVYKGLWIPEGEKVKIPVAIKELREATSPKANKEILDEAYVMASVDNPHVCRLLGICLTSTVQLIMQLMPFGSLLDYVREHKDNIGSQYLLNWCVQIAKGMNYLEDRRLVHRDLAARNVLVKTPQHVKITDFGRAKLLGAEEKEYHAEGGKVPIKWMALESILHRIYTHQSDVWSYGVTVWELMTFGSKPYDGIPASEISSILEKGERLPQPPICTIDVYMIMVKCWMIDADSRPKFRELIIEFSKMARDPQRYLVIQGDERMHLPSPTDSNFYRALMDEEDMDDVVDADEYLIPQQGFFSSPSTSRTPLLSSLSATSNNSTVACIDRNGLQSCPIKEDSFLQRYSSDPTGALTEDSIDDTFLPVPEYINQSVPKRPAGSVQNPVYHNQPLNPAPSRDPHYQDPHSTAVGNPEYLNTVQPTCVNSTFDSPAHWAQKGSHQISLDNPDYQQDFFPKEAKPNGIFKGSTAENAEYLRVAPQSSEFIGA

Structure (SMILES)	IC50 (EGFR L858R/T790M/C797S; [1]) [nM]	IC50 (EGFR L858R/T790M/C797S; [2]) [nM]	IC50 (EGFR wildtype (WT); IC50 WT (nM), 100 μM ATP) [nM]	IC50 (EGFR Del19/T790M/C797S; [3]) [nM]	IC50 (EGFR Del19/T790M/C797S; [4]) [nM]	IC50 (EGFR Del19/C797S; [5]) [nM]	IC50 (EGFR L858R/C797S; [6]) [nM]	IC50 (EGFR wildtype (WT); [7]) [nM]	IC50 (EGFR Del19/C797S; [8]) [nM]	IC50 (EGFR L858R/C797S; [9]) [nM]
CC1OCCC1C#Cc1cnc(Nc2ccnc(-c3cnn(S(=O)(=O)C4CC4)c3)n2)cc1NCC1CCC(O)CC1 (centres unmarked) [Example 431, (1 r,4r)-4-(((2-((2-(1-(Cyclopropylsulfonyl)-1H-pyrazol-4-yl)pyrimidin-4-yl)amino)-5-((2-methyltetrahydrofuran-3-yl)ethynyl)pyridin-4-yl)amino)methyl)cyclohexan-1-ol]	4.7	1	> 10000	2.7	1.2	78.1	2090			
CC1OCCC1C#Cc1cnc(Nc2ccnc(-c3cnn(S(=O)(=O)C4CC4)c3)n2)cc1N1CCC(C)(O)CC1 (centres unmarked) [Example 432, 1-(2-((2-(1-(Cyclopropylsulfonyl)-1H-pyrazol-4-yl)pyrimidin-4-yl)amino)-5-((2-methyltetrahydrofuran-3-yl)ethynyl)pyridin-4-yl)-4-methylpiperidin-4-ol]	0.7	0.3	> 10000	0.6	0.4	5.2	141	11.4	3.1	5.3
CC1OCCC1C#Cc1cnc(Nc2ccnc(-c3cnn(S(=O)(=O)C4CC4)c3)n2)cc1NC1CCC(O)CC1 (centres unmarked) [Example 433, (1 s,4s)-4-((2-((2-(1-(cyclopropylsulfonyl)-1H-pyrazol-4-yl)pyrimidin-4-yl)amino)-5-((2-methyltetrahydrofuran-3-yl)ethynyl)pyridin-4-yl)amino)cyclohexan-1-ol]	0.7	0.2	8720	0.5	0.4	3.2	90.8	7.7	1	4
O=S(=O)(C1CC1)n1cc(-c2nccc(Nc3cc(NC4CCC(CO)CC4)c(C#CC4(F)CCOC4)cn3)n2)cn1 (centres unmarked) [Example 434, ((1s,4s)-4-((2-((2-(1-(Cyclopropylsulfonyl)-1H-pyrazol-4-yl)pyrimidin-4-yl)amino)-5-((3-fluorotetrahydrofuran-3-yl)ethynyl)pyridin-4-yl)amino)cyclohexyl)methanol]	0.5	0.2	8890	0.3	0.4	5.2	125	21.2	2.3	2.4
CC1(O)CCN(c2cc(Nc3ccnc(-c4cnn(S(=O)(=O)C5CC5)c4)n3)ncc2C#CC2(F)CCOC2)CC1 (centres unmarked) [Example 435, 1-(2-((2-(1-(Cyclopropylsulfonyl)-1H-pyrazol-4-yl)pyrimidin-4-yl)amino)-5-((3-fluorotetrahydrofuran-3-yl)ethynyl)pyridin-4-yl)-4-methylpiperidin-4-ol]	0.3	0.1	8720	0.2	0.2	2.9	66.6	14.2	1.3	2
O=S(=O)(C1CC1)n1cc(-c2nccc(Nc3cc(NC4CCC(O)CC4)c(C#CC4(F)CCOC4)cn3)n2)cn1 (centres unmarked) [Example 436, (1s,4s)-4-((2-((2-(1-(Cyclopropylsulfonyl)-1H-pyrazol-4-yl)pyrimidin-4-yl)amino)-5-((3-fluorotetrahydrofuran-3-yl)ethynyl)pyridin-4-yl)amino)cyclohexan-1-ol]	0.3	0.1	> 10000	0.2	0.1	3.1	111	12.5	1.7	2.5
CC1(CO)CCN(c2cc(Nc3ccnc(-c4cnn(S(=O)(=O)C5CC5)c4)n3)ncc2C#CC2CCS(=O)(=O)C2)CC1 (centres unmarked) [Example 437, 3-((6-((2-(1-(Cyclopropylsulfonyl)-1H-pyrazol-4-yl)pyrimidin-4-yl)amino)-4-(4-(hydroxymethyl)-4-methylpiperidin-1-yl)pyridin-3-yl)ethynyl)tetrahydrothiophene 1,1-dioxide]	0.1	0.1	> 10000	0.1	0.1	1.3	39.3	3.7	0.6	0.8
CC1OCCC1C#Cc1cnc(Nc2ccnc(-c3cnn(S(=O)(=O)C4CC4)c3)n2)cc1N1CCC(C)(CO)CC1 (centres unmarked) [Example 438, (1-(2-((2-(1-(Cyclopropylsulfonyl)-1H-pyrazol-4-yl)pyrimidin-4-yl)amino)-5-((2-methyltetrahydrofuran-3-yl)ethynyl)pyridin-4-yl)-4-methylpiperidin-4-yl)methanol]	0.7	0.2	6420	0.3	0.3	3.3	85.5	5.8	1.7	1.9
O=S(=O)(C1CC1)n1cc(-c2nccc(Nc3cc(N4CCC[C@H](O)C4)c(C#Cc4cnn(C(F)(F)F)c4)cn3)n2)cn1 [Example 439, (S)-1-(2-((2-(1-(Cyclopropylsulfonyl)-1H-pyrazol-4-yl)pyrimidin-4-yl)amino)-5-((1-(trifluoromethyl)-1H-pyrazol-4-yl)ethynyl)pyridin-4-yl)piperidin-3-ol]	3.7	1.3	> 10000	1.7	2.1	24.5	62.7	122	12.5	11.1
O=S(=O)(C1CC1)n1cc(-c2nccc(Nc3cc(N4CCC[C@@H](O)C4)c(C#Cc4cnn(CCF)c4)cn3)n2)cn1 [Example 440, (R)-1-(2-((2-(1-(Cyclopropylsulfonyl)-1H-pyrazol-4-yl)pyrimidin-4-yl)amino)-5-((1-(2-fluoroethyl)-1H-pyrazol-4-yl)ethynyl)pyridin-4-yl)piperidin-3-ol]	1.3	0.5	> 10000	0.5	0.5	9.7	61.5	48.4	7.6	10.3
O=C(c1ccc(C#Cc2cnc(Nc3ccnc(-c4cnn(S(=O)(=O)C5CC5)c4)n3)cc2N[C@H]2CC[C@@H](CO)CC2)cc1)N1CCC(O)CC1 [Example 441, (4-((6-((2-(1-(Cyclopropylsulfonyl)-1H-pyrazol-4-yl)pyrimidin-4-yl)amino)-4-(((ls, 4s)-4-(hydroxymethyl)cyclohexyl)amino)pyridin-3-yl)ethynyl)phenyl)(4-hydroxypiperidin-1-yl)methanone]	0.8	0.5	> 10000	2.2	2.1	2.3	47.1			
CC1(O)CCN(c2cc(Nc3ccnc(-c4cnn(S(=O)(=O)C5CC5)c4)n3)ncc2C#Cc2ccc(C(=O)N3CCC(O)CC3)cc2)CC1 [Example 442, (4-((6-((2-(1-(Cyclopropylsulfonyl)-1H-pyrazol-4-yl)pyrimidin-4-yl)amino)-4-(4-hydroxy-4-methylpiperidin-1-yl)pyridin-3-yl)ethynyl)phenyl)(4-hydroxypiperidin-1-yl)methanone]	0.3	0.1	9930	0.9	0.7	1.3	20.3			
O=C(c1ccc(C#Cc2cnc(Nc3ccnc(-c4cnn(S(=O)(=O)C5CC5)c4)n3)cc2NC[C@H]2CC[C@H](CO)CC2)cc1)N1CCC(O)CC1 [Example 443, (4-((6-((2-(1-(Cyclopropylsulfonyl)-1H-pyrazol-4-yl)pyrimidin-4-yl)amino)-4-((((1 r,4r)-4-(hydroxymethyl)cyclohexyl)methyl)amino)pyridin-3-yl)ethynyl)phenyl)(4-hydroxypiperidin-1-yl)methanone]	4	1.2	> 10000	7.7	4.3	53.5	4610			
O=C(c1ccc(C#Cc2cnc(Nc3ccnc(-c4cnn(S(=O)(=O)C5CC5)c4)n3)cc2N2CCC[C@@H](O)C2)cc1)N1CCC(O)CC1 [Example 444, (R)-(4-((6-((2-(1-(Cyclopropylsulfonyl)-1H-pyrazol-4-yl)pyrimidin-4-yl)amino)-4-(3-hydroxypiperidin-1-yl)pyridin-3-yl)ethynyl)phenyl)(4-hydroxypiperidin-1-yl)methanone]	1.5	0.3	> 10000	1.5	0.9	10.2	549			

Source: patent US11981658B2, “Substituted aminopyridine compounds as EGFR inhibitors” (YUHAN CORPORATION, priority 2021, dated 2024)
